Measured values taken from patent US9840481B2, “Allosteric modulators of nicotinic acetylcholine receptors” (MERCK SHARP & DOHME CORP., priority 2016, dated 2017).
Read-outs that look alike come from different tables or passages of the source.

Target: T1, human α7 nAChR stably expressed in a HEK cell line (with human RIC-3) (Homo sapiens, UniProt P36544)
T1 construct: PrecisION hnAChR α7/RIC-3
Experiment: Automated patch-clamp electrophysiology functional assay (Assay A), IonFlux HT, whole-cell population patch
Assay type: cell-based
Protocol: The α7 nAChR positive allosteric modulator (PAM) activity of the present compounds may be tested using assays known in the art. The α7 nAChR PAMs described herein have activities in an automated patch-clamp electrophysiology functional assay as described in the examples. The assay was performed using the IonFlux HT in a whole-cell, population patch configuration. See Golden et al. Assay Drug Dev. Technol. (2011) 9:608-619. The compounds were assessed for their ability to modulate the function of the human α7 nAChR stably expressed in a HEK cell line both in the presence, and in the absence of the natural α7 agonist acetylcholine. By performing a series of such measurements at different concentrations, the effective concentration of the α7 nAChR PAMs (EC50) was determined. See Spencer et al. Assay Drug Dev. Technol. (2012) 10:313-324.
Direct activation of α7 (agonism), and potentiation of 5 acetylcholine-evoked α7 currents was determined as follows:
Automated Patch-Clamp Electrophysiology Functional Assay (Assay A)
Automated patch-clamp electrophysiology was performed using the IonFlux HT (Fluxion Biosciences Inc., San Francisco, Calif.) in the whole-cell, population patch configuration. Test compounds were assessed for their ability to modulate the function of the α7 nicotinic acetylcholine receptor both in the presence, and in the absence of the natural α7 agonist acetylcholine. A HEK cell line stably expressing both human RIC-3 and human α7 (PrecisION hnAChR α7/RIC-3, Eurofins Pharma, St. Charles, Mo.) was cultured in 175 cm^2 triple-layer tissue culture flasks to no more than 90% confluency in DMEM/F-12 growth media supplemented with 10% heat-inactivated fetal bovine serum, 1% non-essential amino acids, 0.625 μg/mL Puromycin, and 400 μg/mL Geneticin. Immediately prior to assay, cells were detached by first aspirating growth media, rinsing with Dulbecco's phosphate buffered saline, and then adding 10 mL of Accutase (Innovative Cell Technologies, San Diego, Calif.) to the flask and then incubating at 37° C. for 5 minutes. Detached cells were then recovered by the addition of 40 mL of CHO-serum-free media supplemented with 25 mM HEPES, and rocked gently in a 50 mL conical tube for 20 minutes prior to patch-clamp assay. After recovery, cells were pelleted by centrifugation at 1,000 RPM for 1 minute in a compact bench top centrifuge; recovery media was aspirated and cells were resuspended in external recording solution (150 mM NaCl, 5 mM KCl, 2 mM CaCl2, 1 mM MgCl2, 10 mM HEPES, 12 mM dextrose) to a density of 5.0×10^6 cells/mL. The cell suspension was added to the cell inlet wells on an IonFlux HT population patch plate which had previously been rinsed and primed with deionized H2O. Test compounds were serially diluted in DMSO and then resuspended to the final test concentration in external recording solution, with, or without […] acetylcholine added to the external recording solution; test compounds were then transferred to the IonFlux HT population patch plate. Internal recording solution (110 mM TrisPO4, 28 mM TrisBase, 0.1 mM CaCl2, 2 mM MgCl2, 11 mM EGTA, 4 mM MgATP) was added to the internal recording solution inlet wells on the IonFlux HT patch plate previously loaded with cells and test compounds, and the plate loaded into the IonFlux HT instrument. A protocol was executed on the IonFlux HT to trap the cells, break into the cells, and establish the whole-cell recording configuration; cells were voltage-clamped at a holding potential of −60 mV for the duration of the experiment, all experiments were conducted at room temperature, and the IonFlux HT injection pressure was 8 psi for solution applications. Upon establishing the whole-cell configuration, external recording solution was perfused into the recording chambers for 120 seconds and then 40 μM acetylcholine was applied for 1 second and immediately washed off with external recording solution for 60 seconds. […]

[1] = automated patch-clamp electrophysiology functional assay (Assay A), potency class by EC50, read-out: α7 nAChR Potency
[2] = electrophysiology EC50, HEK cells expressing human α7/RIC-3, 40 μM acetylcholine, holding potential −60 mV, room temperature, read-out: α7 nAChR EC50

T1 sequence (P36544 23-502): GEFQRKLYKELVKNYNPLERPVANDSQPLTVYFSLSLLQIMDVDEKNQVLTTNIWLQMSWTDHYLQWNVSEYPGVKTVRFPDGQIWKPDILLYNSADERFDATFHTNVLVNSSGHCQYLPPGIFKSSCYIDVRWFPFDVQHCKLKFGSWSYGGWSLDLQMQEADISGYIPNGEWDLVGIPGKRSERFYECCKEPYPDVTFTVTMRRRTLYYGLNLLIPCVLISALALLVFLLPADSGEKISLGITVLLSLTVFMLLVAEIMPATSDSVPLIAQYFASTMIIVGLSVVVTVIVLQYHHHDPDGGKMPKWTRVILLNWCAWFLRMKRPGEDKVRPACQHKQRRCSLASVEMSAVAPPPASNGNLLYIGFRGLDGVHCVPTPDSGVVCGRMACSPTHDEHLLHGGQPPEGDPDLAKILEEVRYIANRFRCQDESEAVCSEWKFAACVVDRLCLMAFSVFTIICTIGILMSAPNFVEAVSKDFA

| SMILES | EC50 [1] [nM] | EC50 [2] [nM] |
| --- | --- | --- |
| CC(=O)N1CCC(c2noc([C@@H]3[C@@H](c4ccc(S(N)(=O)=O)cc4)C3(C)C)n2)CC1 [Example B16] | 500 to 5000 | 2200 |
| CC1(C)[C@@H](c2ccc(S(N)(=O)=O)cc2)[C@@H]1c1nc(CC2CC2)no1 [Example D27] | 100 to 500 | 200 |
| CC1(C)[C@@H](c2ccc(S(N)(=O)=O)cc2)[C@@H]1c1noc(C2CN(C(=O)C3CC3)C2)n1 [Example I23] | 500 to 5000 |  |
| NS(=O)(=O)c1ccc(C2C(c3nc(C4CCCC4)no3)C2(Cl)Cl)cc1 (racemic) [Example M5] | 100 to 500 |  |
| NS(=O)(=O)c1ccc([C@@H]2C[C@H]2c2nc(C3CCCC3)no2)cc1 [Example D21] | 100 to 500 | 130 |
| CC1(C)[C@@H](c2ccc(S(N)(=O)=O)cc2)[C@@H]1c1noc(-c2cscn2)n1 [Example I6] | 500 to 5000 |  |
| CC1(C)[C@H](c2ccc(S(N)(=O)=O)cc2)[C@H]1c1nnc(-c2c(F)cccc2C(F)(F)F)o1 [Example F3] | 500 to 5000 | 4700 |
| CC1(C)[C@@H](c2ccc(S(N)(=O)=O)cc2)[C@@H]1c1nnc(-c2c(F)cccc2C(F)(F)F)o1 [Example G17] | 500 to 5000 | 950 |
| CC1(C)[C@H](c2ccc(S(N)(=O)=O)cc2)[C@H]1c1cnn(C2CCCC2)c1 [Example L8] | 500 to 5000 |  |
| CC1(C)[C@@H](c2ccc(S(N)(=O)=O)cc2)[C@@H]1c1nc(C2CCCC2)no1 [Example D20] | ≤ 100 | 69 |
| CC1(C)[C@H](c2ccc(S(N)(=O)=O)cc2)[C@H]1c1nnc(-c2cc(F)ccc2C(F)(F)F)o1 [Example F2] | 500 to 5000 |  |
| CC1(C)C(c2ccc(S(N)(=O)=O)cc2)C1c1cc(C2CCCC2)on1 (stereo not drawn) [Example 34, 4-(trans-3-(5-Cyclopentylisoxazol-3-yl)-2,2-dimethylcyclopropyl)benzenesulfonamide] | 100 to 500 | 160 |
| CC1(C)[C@H](c2ccc(S(N)(=O)=O)cc2)[C@H]1c1noc(N2CCCCC2)n1 [Example L20] | 500 to 5000 | 1300 |
| CC1(C)[C@@H](c2ccc(S(N)(=O)=O)cc2)[C@@H]1c1noc(-c2c(F)ccc(F)c2F)n1 [Example 3, 4-((1S,3S)-2,2-Dimethyl-3-(5-(2,3,6-trifluorophenyl)-1,2,4-oxadiazol-3-yl)cyclopropyl) benzenesulfonamide] | ≤ 100 | 83 |
| CC(C)c1nnc([C@H]2[C@H](c3ccc(S(N)(=O)=O)cc3)C2(C)C)o1 [Example G9] | 500 to 5000 |  |
| NS(=O)(=O)c1ccc([C@@H]2C[C@H]2c2nsc(N3CCCCC3)n2)cc1 [Example 29, 4-{(1R,2R)-2-[5-(Piperidin-1-yl)-1,2,4-thiadiazol-3-yl]cyclopropyl}benzenesulfonamide] | 100 to 500 | 140 |
| CC1(C)[C@@H](c2ccc(S(N)(=O)=O)cc2)[C@@H]1c1nc(C2CCCC2)co1 [Example K17] | 100 to 500 | 130 |
| NS(=O)(=O)c1ccc([C@@H]2C[C@H]2c2nsc(-c3cccc(F)c3)n2)cc1 [Example L10] | ≤ 100 | 88 |
| CC1(C)[C@@H](c2ccc(S(N)(=O)=O)cc2)[C@@H]1c1noc(-c2c(F)cc(F)cc2F)n1 [Example H3] | 100 to 500 | 130 |
| NS(=O)(=O)c1ccc([C@@H]2C[C@H]2c2noc(C3CCCCC3)n2)cc1 [Example I34] | 100 to 500 |  |
| CC1(C)[C@@H](c2ccc(S(N)(=O)=O)cc2)[C@@H]1c1noc(-c2ccc(F)c(OC(F)(F)F)c2)n1 [Example H4] | 500 to 5000 |  |
| NS(=O)(=O)c1ccc([C@@H]2C[C@H]2c2noc(C3(C(F)(F)F)CC3)n2)cc1 [Example I35] | 500 to 5000 | 690 |
| CC1(C)[C@@H](c2ccc(S(N)(=O)=O)cc2)[C@@H]1c1noc(-c2ccncc2C(F)(F)F)n1 [Example I19] | 100 to 500 |  |

Other lines, results leading:

| EC50 [1] [nM] | EC50 [2] [nM] | SMILES |
| --- | --- | --- |
| 5000 to 50000 | 7300 | NS(=O)(=O)c1ccc([C@H]2C[C@@H]2c2nc(-c3ccccc3)no2)cc1 [Example A5] |
| 500 to 5000 | 1200 | CC1(C)[C@H](c2ccc(S(N)(=O)=O)cc2)[C@H]1c1cnc(-c2ccccc2)o1 [Example 10, 4-[(1R,3R)-2,2-Dimethyl-3-(2-phenyl-1,3-oxazol-5-yl)cyclopropyl]benzenesulfonamide] |
| ≤ 100 | 83 | NS(=O)(=O)c1ccc([C@H]2[C@H](c3nc(-c4ccccc4)no3)C2(F)F)cc1 [Example C21] |
| 500 to 5000 | 2800 | CC1(C)[C@H](c2ccc(S(N)(=O)=O)cc2)[C@H]1c1nc(-c2cncc(C(F)(F)F)c2)no1 [Example B7] |
| ≤ 100 | 98 | Cc1nc([C@@H]2C[C@H]2c2ccc(S(N)(=O)=O)cc2)sc1-c1ccccc1 [Example 16, 4-[(1R,2R)-2-(4-Methyl-5-phenyl-1,3-thiazol-2-yl)cyclopropyl]benzenesulfonamide] |
| 500 to 5000 | 640 | CC1(C)[C@@H](c2ccc(S(N)(=O)=O)cc2)[C@@H]1c1cc(-c2ccccc2)no1 [Example L4] |
| 5000 to 50000 | 8700 | CC1(C)[C@H](c2ccc(S(N)(=O)=O)cc2)[C@H]1c1nc(C2CCC2)no1 [Example B3] |
| 500 to 5000 | 980 | NS(=O)(=O)c1ccc([C@@H]2C[C@H]2c2csc(-c3ccccc3)n2)cc1 [Example 25, 4-[(1R,2R)-2-(2-Phenyl-1,3-thiazol-4-yl)cyclopropyl]benzenesulfonamide] |
| 500 to 5000 | 800 | NS(=O)(=O)c1ccc([C@@H]2C[C@H]2c2nc(-c3cncc(F)c3)no2)cc1 [Example D12] |
| 500 to 5000 | 670 | NS(=O)(=O)c1ccc([C@@H]2C[C@H]2c2nc(-c3ccccc3)cs2)cc1 [Example K9] |
| 100 to 500 | 420 | CC1(C)[C@H](c2ccc(S(N)(=O)=O)cc2)[C@H]1c1nnc(-c2ccccc2)s1 [Example F4] |
| 500 to 5000 | 2900 | CC1(C)C(c2ccc(S(N)(=O)=O)cc2)C1c1cc(-c2cccc(F)c2)on1 (racemic) [Example M6] |
| 500 to 5000 | 1000 | CC1(C)[C@H](c2ccc(S(N)(=O)=O)cc2)[C@H]1c1nnc(-c2ccccc2)[nH]1 [Example F5] |
| 5000 to 50000 |  | COc1ccc(Cl)cc1-c1noc([C@H]2[C@H](c3ccc(S(N)(=O)=O)cc3)C2(C)C)n1 [Example C1] |
| 500 to 5000 |  | NS(=O)(=O)c1ccc([C@@H]2C[C@H]2c2nc(C3CC(F)(F)C3)no2)cc1 [Example D19] |
| 500 to 5000 | 3100 | CC1(C)[C@@H](c2ccc(S(N)(=O)=O)cc2)[C@@H]1c1noc(-c2cc(C(F)(F)F)c3ccccc3n2)n1 [Example I13] |
| 500 to 5000 | 730 | CC1(C)[C@H](c2ccc(S(N)(=O)=O)cc2)[C@H]1c1nc(-c2ccc(F)cc2F)co1 [Example J2] |
| 500 to 5000 |  | NS(=O)(=O)c1ccc([C@@H]2C[C@H]2c2cnc(-c3ccccc3)o2)cc1 [Example L3] |
| 500 to 5000 | 1800 | CC1(C)[C@@H](c2ccc(S(N)(=O)=O)cc2)[C@@H]1c1nnc(-c2ccccc2)o1 [Example G1] |
| 100 to 500 | 340 | NS(=O)(=O)c1ccc([C@@H]2C[C@H]2c2nc(-c3cccc(F)c3F)no2)cc1 [Example C15] |
| 500 to 5000 | 1900 | C#Cc1ccc(-c2nc([C@H]3[C@H](c4ccc(S(N)(=O)=O)cc4)C3(C)C)no2)cc1 [Example H11] |
